According to US20220251163A1 (Sinopep-Allsino Biopharmaceutical Co., Ltd., priority 2019, published 2022):
*1 amine or outer side, *2 acyl side, *3 side chain or, on linkers, in order; H or OH if unused. Where a SMILES comes first, the peptide text is derived from it. Side-chain parts run from the residue outwards. [ ]: non-standard residue; d: D form. The star is where a group is joined. C18 diacid = O=C(O)CCCCCCCCCCCCCCCCC(=O)*; γGlu = O=C(O)[C@H](CCC(=O)[*:2])N[*:1]; AEEA = NCCOCCOCC(=O)O; Aib = CC(C)(N)C(=O)O

Experiments:
[1] = target: T1, mGLP-1R (Mus musculus, UniProt O35659); test: GLP-1R agonist activity, cAMP in transfected HEK293 cells; type: cell-based; details: HEK293 cells transfected with GLP-1R, cAMP, 20 min incubation; read-out: mGLP-1R EC50
T1 construct: expressed in transfected cells; host or cells: HEK293
T1 sequence (O35659 22-463): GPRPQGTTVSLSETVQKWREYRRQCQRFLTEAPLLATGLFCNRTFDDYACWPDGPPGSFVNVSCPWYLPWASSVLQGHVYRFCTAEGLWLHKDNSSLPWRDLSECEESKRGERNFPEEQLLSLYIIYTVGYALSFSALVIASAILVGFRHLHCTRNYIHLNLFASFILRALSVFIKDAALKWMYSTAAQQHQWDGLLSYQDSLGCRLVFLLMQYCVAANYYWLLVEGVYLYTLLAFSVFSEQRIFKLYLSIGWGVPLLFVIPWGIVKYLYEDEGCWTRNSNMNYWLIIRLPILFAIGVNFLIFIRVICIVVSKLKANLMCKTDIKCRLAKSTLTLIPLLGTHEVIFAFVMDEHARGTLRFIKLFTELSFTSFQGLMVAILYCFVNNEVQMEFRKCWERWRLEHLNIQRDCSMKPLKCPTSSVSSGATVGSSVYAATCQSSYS
Experimental: HEK293 cells were co-transfected with cDNA encoding GLP-1R or GIPR. In a test for determining the compound, the cells were inoculated in a 96-well plate 2 h in advance, the polypeptide compound was dissolved with DMSO, and diluted to different multiples with a culture medium containing 0.1% bovine serum albumin and added to the co-transfected cells. After the cells were incubated for 20 min, fluorescence values were determined through microplate reader of an ELISA kit of the Cisbo Company, a standard curve was established to convert the fluorescence values into corresponding cAMP values, and the EC50 value of the compound was calculated through nonlinear regression of Graphpad Prism 5.0 software.

[2] = target: T2, mGIPR (Mus musculus, UniProt Q0P543); test: GIPR agonist activity, cAMP in transfected HEK293 cells; type: cell-based; details: HEK293 cells transfected with GIPR, cAMP, 20 min incubation; read-out: mGIPR EC50
T2 construct: expressed in transfected cells; host or cells: HEK293
T2 sequence (Q0P543 19-460): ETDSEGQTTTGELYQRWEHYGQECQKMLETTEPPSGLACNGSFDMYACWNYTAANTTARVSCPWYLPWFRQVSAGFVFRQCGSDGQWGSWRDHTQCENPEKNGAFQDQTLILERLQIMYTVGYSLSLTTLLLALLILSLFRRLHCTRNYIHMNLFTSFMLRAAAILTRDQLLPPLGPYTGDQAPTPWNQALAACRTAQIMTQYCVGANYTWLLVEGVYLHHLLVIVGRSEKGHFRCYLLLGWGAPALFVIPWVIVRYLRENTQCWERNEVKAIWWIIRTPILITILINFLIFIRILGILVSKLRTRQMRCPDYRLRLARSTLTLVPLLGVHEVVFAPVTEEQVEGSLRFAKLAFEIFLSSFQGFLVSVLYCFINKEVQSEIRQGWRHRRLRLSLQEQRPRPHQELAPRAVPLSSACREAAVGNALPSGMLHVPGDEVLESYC
Experimental: HEK293 cells were co-transfected with cDNA encoding GLP-1R or GIPR. In a test for determining the compound, the cells were inoculated in a 96-well plate 2 h in advance, the polypeptide compound was dissolved with DMSO, and diluted to different multiples with a culture medium containing 0.1% bovine serum albumin and added to the co-transfected cells.

[3] = system: ob/ob mice; test: Blood glucose reducing experiment, single subcutaneous injection in ob/ob mice; type: in vivo; details: 100 μg/kg single s.c.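 Note: random blood glucose read at each time point, decrease rate given as percentage fall versus the model control group.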
[4] = Effect on random weight of ob/ob mice after single subcutaneous injection; type: in vivo; details: 100 μg/kg single s.c., X ± s, n = 7
Experimental: The mice in each group received random blood glucose value measurement before (0 h) administration and 2, 4, 6, 10 and 24 h after administration, and then the time for measuring the random blood glucose was adjusted and prolonged to 34, 48, 58 or 72 h after administration according to the blood glucose condition of the mice in each group. Meanwhile, the random weight of the mice in each group before (0 h) administration and 24 h after administration was weighed, and then the random weight of the mice corresponding to the random blood glucose measurement condition 48 or 72 h after administration was weighed.

SMILES: CC[C@H](C)[C@H](NC(=O)[C@H](CC(C)C)NC(=O)[C@H](Cc1c[nH]c2ccccc12)NC(=O)[C@H](CCC(N)=O)NC(=O)[C@@H](NC(=O)[C@H](Cc1ccccc1)NC(=O)[C@H](C)NC(=O)[C@H](CCCCNC(=O)COCCOCCNC(=O)COCCOCCNC(=O)CC[C@H](NC(=O)CCCCCCCCCCCCCCCCC(=O)O)C(=O)O)NC(=O)[C@H](CCC(N)=O)NC(=O)[C@H](C)NC(=O)[C@@H](NC(=O)[C@H](CCCCN)NC(=O)[C@H](CC(=O)O)NC(=O)[C@H](CC(C)C)NC(=O)C(C)(C)NC(=O)[C@@H](NC(=O)[C@H](CO)NC(=O)[C@H](Cc1ccc(O)cc1)NC(=O)[C@H](CC(=O)O)NC(=O)[C@H](CO)NC(=O)[C@@H](NC(=O)[C@H](Cc1ccccc1)NC(=O)[C@@H](NC(=O)CNC(=O)[C@H](CCC(=O)O)NC(=O)[C@H](C)NC(=O)[C@@H](N)Cc1ccc(O)cc1)[C@@H](C)O)[C@@H](C)O)[C@@H](C)CC)[C@@H](C)CC)C(C)C)C(=O)N[C@@H](C)C(=O)NCC(=O)NCC(=O)N1CCC[C@H]1C(=O)N[C@@H](CO)C(=O)N[C@@H](CO)C(=O)NCC(=O)N[C@@H](C)C(=O)N1CCC[C@H]1C(=O)N1CCC[C@H]1C(=O)N1CCC[C@H]1C(=O)N[C@@H](CO)C(N)=O [ID NO: 5] (H-YAEGTFTSDYSI[Aib]LDKIAQK([AEEA-AEEA-γGlu-C18 diacid])AFVQWLIAGGPSSGAPPPS-NH2)
- EC50 [1]: 2.99 pM
- EC50 [2]: 6.4 pM
- Blood glucose at different time after administration, 0 h ([3]; 0 h (before administration), X ± s, n = 7): 20.57 ± 0.84 mmol/L
- Decrease rate of blood glucose at different time after administration, 2 h ([3]; 2 h): 50.8%
- Blood glucose at different time after administration, 2 h ([3]; 2 h, X ± s, n = 7): 10.12 ± 1.20 mmol/L
- Decrease rate of blood glucose at different time after administration, 4 h ([3]; 4 h): 53.6%
- Blood glucose at different time after administration, 4 h ([3]; 4 h, X ± s, n = 7): 9.54 ± 0.84 mmol/L
- Decrease rate of blood glucose at different time after administration, 6 h ([3]; 6 h): 54.2%
- Blood glucose at different time after administration, 6 h ([3]; 6 h, X ± s, n = 7): 9.43 ± 0.86 mmol/L
- Decrease rate of blood glucose at different time after administration, 10 h ([3]; 10 h): 52.6%
- Blood glucose at different time after administration, 10 h ([3]; 10 h, X ± s, n = 7): 9.76 ± 0.96 mmol/L
- Decrease rate of blood glucose at different time after administration, 24 h ([3]; 24 h): 47.1%
- Blood glucose at different time after administration, 24 h ([3]; 24 h, X ± s, n = 7): 10.89 ± 1.43 mmol/L
- Decrease rate of blood glucose at different time after administration, 34 h ([3]; 34 h): 35.2%
- Blood glucose at different time after administration, 34 h ([3]; 34 h, X ± s, n = 7): 13.33 ± 2.10 mmol/L
- Decrease rate of blood glucose at different time after administration, 48 h ([3]; 48 h): 15.8%
- AUC0-24 h Glu ([3]; blood glucose curve area within 24 h, X ± s, n = 7): 252.25 ± 19.68 mmol·h/L
- AUC0-24 h Glu Decrease rate ([3]; versus model control group): 50.6%
- Changes of random body weight at different time after administration, 0 h ([4]; 0 h): 0.0 ± 0.0 g
- Random body weight at different time after administration, 0 h ([4]; 0 h): 43.5 ± 0.9 g
- Changes of random body weight at different time after administration, 24 h ([4]; 24 h): -1.4 ± 0.2 g
- Random body weight at different time after administration, 24 h ([4]; 24 h): 42.0 ± 0.9 g
- Changes of random body weight at different time after administration, 48 h ([4]; 48 h): -0.6 ± 0.2 g
- Random body weight at different time after administration, 48 h ([4]; 48 h): 42.9 ± 0.9 g
